In patent US9428504B2, “7-hydroxy-spiropipiperidine indolinyl antagonists of P2Y1 receptor” (BRISTOL-MYERS SQUIBB COMPANY, priority 2012, dated 2016):
Counter-ions that a name gives are not always drawn.

What was measured:
[1] = molecular target: cloned human P2Y1 receptors (Homo sapiens (Human), UniProt P47900); experiment: Binding Assay B: Scintillation Proximity Assay (SPA) for P2Y1 binding; conditions: SPA, [33P] 2MeS-ADP displacement; read-out: P2Y1 Ki (nM) using binding assay B
Method: A SPA membrane binding assay was used to identify inhibitors of [^33P] […] Binding reactions were performed in 384-well OptiPlates (PerkinElmer Life Sciences, Cat #6007299) in a volume of 50 μL containing ˜15 fmol of P2Y1 receptor (1.7 μg of total protein), 0.3 nM [^33P] […] Reactions were allowed to proceed to completion at room temperature for 1 hour followed by centrifugation of the plate for 5 min. About 40 μL of the aqueous solution was aspirated. Plates were sealed and the [^33P]

[2] = test system: human platelet rich plasma (PRP); experiment: ADP induced platelet aggregation assay; conditions: Homo sapiens, Platelet, read-out: PA IC50 (μM) @ 10 μM ADP, platelet aggregation induced by 10 μM ADP, human PRP

cloned human P2Y1 receptors, sequence (P47900 whole entry): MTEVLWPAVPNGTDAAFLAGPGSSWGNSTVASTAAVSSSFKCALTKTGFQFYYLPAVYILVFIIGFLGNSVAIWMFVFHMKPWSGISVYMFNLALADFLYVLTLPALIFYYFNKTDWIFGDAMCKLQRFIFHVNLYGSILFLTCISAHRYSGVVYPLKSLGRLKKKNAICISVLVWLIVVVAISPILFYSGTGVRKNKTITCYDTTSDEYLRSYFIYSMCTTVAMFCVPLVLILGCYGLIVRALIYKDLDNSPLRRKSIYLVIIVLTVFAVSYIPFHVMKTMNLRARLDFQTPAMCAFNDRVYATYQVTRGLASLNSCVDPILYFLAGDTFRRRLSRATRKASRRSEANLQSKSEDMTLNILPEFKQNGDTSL

Row | Compound | Ki [1] | IC50 [2]
1 | CC(C)CN1CCCC1c1ccc(NC(=O)Nc2ccccc2N2CC3(CCN(CC(C)(C)C)CC3)c3c(F)c(F)cc(O)c32)cc1 (centres unmarked) [Example 104, 1-(2-(4,5-Difluoro-7-hydroxy-1′-neopentylspiro [indoline-3,4′-piperidine]-1-yl)phenyl)-3-(4-(1-isobutylpyrrolidin-2-yl)phenyl)urea] | 17 nM | 1 µM
2 | CC(C)(C)CN1CCC2(CC1)CN(c1ccccc1NC(=O)Nc1ccc(OC(F)(F)F)cc1)c1c(O)c(F)cc(-c3ccc(Cl)cc3)c12 [Example 156, 1-(2-(4-(4-Chlorophenyl)-6-fluoro-7-hydroxy-1′-neopentylspiro[indoline-3,4′-piperidin]-1-yl)phenyl)-3-(4-(trifluoromethoxy)phenyl)urea] | 20.2 nM | 0.2 µM
3 | CCN(CC)S(=O)(=O)c1ccc(O)c2c1C1(CCN(CC(C)(C)C)CC1)CN2c1ccccc1NC(=O)Nc1ccc(C(C)(C)C)cc1 [Example 90, 1-(2-(3-(4-tert-Butylphenyl)ureido)phenyl)-N,N-diethyl-7-hydroxy-1′-neopentylspiro [indoline-3,4′-piperidine]-4-sulfonamide, trifluoroacetic acid salt] | 3.5 nM | 0.2 µM
4 | CC(C)(C)CN1CCC2(CC1)CN(c1ccccc1NC(=O)Nc1ccc(C(F)(F)F)cc1)c1c(O)ccc(Cl)c12 [Example 60, 1-(2-(4-Chloro-7-hydroxy-1′-neopentylspiro[indoline-3,4′-piperidin]-1-yl)phenyl)-3-(4-(trifluoromethyl)phenyl)urea] | 6.4 nM | 0.4 µM
5 | CC(C)c1nsc(NC(=O)Nc2ccccc2N2CC3(CCN(CC(C)(C)C)CC3)c3c(C(F)(F)F)ccc(O)c32)n1 [Example 19, 1-(2-(7-Hydroxy-1′-neopentyl-4-(trifluoromethyl)spiro[indoline-3,4′-piperidine]-1-yl)phenyl)-3-(3-isopropyl-1,2,4-thiadiazol-5-yl)urea] | 7.5 nM | 0.2 µM
6 | CC(C)CN1CCc2nc(NC(=O)Nc3ccccc3N3CC4(CCN(CC(C)(C)C)CC4)c4c(Cl)ccc(O)c43)sc2C1 [Example 74, 1-(2-(4-Chloro-7-hydroxy-1′-neopentylspiro[indoline-3,4′-piperidine]-1-yl)phenyl)-3-(5-isobutyl-4,5,6,7-tetrahydrothiazolo[5,4-c]pyridin-2-yl)urea] | 10.3 nM | 0.2 µM
7 | CCSc1nsc(NC(=O)Nc2ccccc2N2CC3(CCN(CC(C)(C)C)CC3)c3c(Cl)ccc(O)c32)n1 [Example 44, 1-(2-(4-Chloro-7-hydroxy-1′-neopentylspiro[indoline-3,4′-piperidine]-1-yl)phenyl)-3-(3-(ethylthio)-1,2,4-thiadiazol-5-yl)urea] | 7.3 nM | 0.1 µM
8 | CC(C)(C)CN1CCC2(CC1)CN(c1ccccc1NC(=O)Nc1ccc(C(C)(C)C)cc1)c1c(O)cc(F)c(F)c12 [Example 9, 1-(4-tert-Butylphenyl)-3-(2-(4,5-difluoro-7-hydroxy-1′-neopentylspiro [indoline-3,4′-piperidine]-1-yl)phenyl)urea] | 10.5 nM | 0.9 µM
9 | CC(C)(C)CN1CCC2(CC1)CN(c1ccccc1NC(=O)Nc1nc3c(s1)CSCC3)c1c(O)ccc(Cl)c12 [Example 49, 1-(2-(4-Chloro-7-hydroxy-1′-neopentylspiro[indoline-3,4′-piperidine]-1-yl)phenyl)-3-(6,7-dihydro-4H-thiopyrano[4,3-d]thiazol-2-yl)urea, TFA] | 6.5 nM | 0.3 µM
10 | COc1ccc2nc(NC(=O)Nc3ccccc3N3CC4(CCN(CC(C)(C)C)CC4)c4c(Cl)ccc(O)c43)sc2n1 [Example 169, 1-(2-(4-Chloro-7-hydroxy-1′-neopentylspiro[indoline-3,4′-piperidine]-1-yl)phenyl)-3-(5-methoxythiazolo[5,4-b]pyridin-2-yl)urea] | 11.5 nM | 0.2 µM
11 | CC(C)(C)CN1CCC2(CC1)CN(c1ccccc1NC(=O)Nc1nc3ccc(Cl)cc3s1)c1c(O)ccc(-c3nc4ccc(F)cc4s3)c12 [Example 145, 1-(6-Chlorobenzo[d]thiazol-2-yl)-3-(2-(4-(6-fluorobenzo[d]thiazol-2-yl)-7-hydroxy-1′-neopentylspiro[indoline-3,4′-piperidin]-1-yl)phenyl)urea] | 18.4 nM | 0.6 µM
12 | COc1ccc2nc(NC(=O)Nc3ccccc3N3CC4(CCN(CC(C)(C)C)CC4)c4c(Cl)ccc(O)c43)sc2c1 [Example 47, 1-(2-(4-Chloro-7-hydroxy-1′-neopentylspiro[indoline-3,4′-piperidine]-1-yl)phenyl)-3-(6-methoxybenzo[d]thiazol-2-yl)urea, TFA] | 9.4 nM | 0.3 µM
13 | Cc1nc(NC(=O)Nc2ccccc2N2CC3(CCN(CC(C)(C)C)CC3)c3c(C(F)(F)F)ccc(O)c32)cs1 [Example 25, 1-(2-(7-Hydroxy-1′-neopentyl-4-(trifluoromethyl)spiro[indoline-3,4′-piperidine]-1-yl)phenyl)-3-(2-methylthiazol-4-yl)urea] | 4.9 nM | 0.1 µM
14 | CC(C)CN1CCC2(CC1)CN(c1ccccc1NC(=O)Nc1nc3ccc(F)cc3s1)c1c(O)ccc(C(F)(F)F)c12 [Example 31, 1-(6-Fluorobenzo[d]thiazol-2-yl)-3-(2-(7-hydroxy-1′-isobutyl-4-(trifluoromethyl)spiro[indoline-3,4′-piperidine]-1-yl)phenyl)urea] | 16.4 nM | 0.1 µM
15 | CC(C)(C)CN1CCC2(CC1)CN(c1ccccc1NC(=O)Nc1csc(C(F)(F)F)n1)c1c(O)ccc(-c3nc4cc(Cl)ccc4s3)c12 [Example 120, 1-(2-(4-(5-Chlorobenzo[d]thiazol-2-yl)-7-hydroxy-1′-neopentylspiro[indoline-3,4′-piperidin]-1-yl)phenyl)-3-(2-(trifluoromethyl)thiazol-4-yl)urea] | 28.5 nM | 0.6 µM
16 | CC(C)(C)CN1CCC2(CC1)CN(c1ccccc1NC(=O)Nc1ccc(OC(F)(F)F)cc1)c1c(O)cc(F)c(-c3ccc(C(F)(F)F)nc3)c12 [Example 160, 1-(2-(5-Fluoro-7-hydroxy-1′-neopentyl-4-(6-(trifluoromethyl)pyridin-3-yl)spiro[indoline-3,4′-piperidin]-1-yl)phenyl)-3-(4-(trifluoromethoxy)phenyl)urea] | 199 nM | 0.1 µM
17 | CC(C)(C)CN1CCC2(CC1)CN(c1ccccc1NC(=O)Nc1nc3ccc(F)cc3s1)c1c(O)c(F)cc(Cl)c12 [Example 100, 1-(2-(4-Chloro-6-fluoro-7-hydroxy-1′-neopentylspiro [indoline-3,4′-piperidine]-1-yl)phenyl)-3-(6-fluorobenzo[d]thiazol-2-yl)urea] | 7.9 nM | 0.2 µM
18 | CC(C)(C)CN1CCC2(CC1)CN(c1ccccc1NC(=O)Nc1nc3ccc(Cl)nc3s1)c1c(O)ccc(F)c12 [Example 168, 1-(5-Chlorothiazolo[5,4-b]pyridin-2-yl)-3-(2-(4-fluoro-7-hydroxy-1′-neopentylspiro-[indoline-3,4′-piperidine]-1-yl)phenyl)urea] | 8.6 nM | 0.3 µM
19 | CC(C)(C)CN1CCC2(CC1)CN(c1ccccc1NC(=O)Nc1nc3ccc([N+](=O)[O-])cc3s1)c1c(O)ccc(Cl)c12 [Example 51, 1-(2-(4-Chloro-7-hydroxy-1′-neopentylspiro[indoline-3,4′-piperidine]-1-yl)phenyl)-3-(6-nitrobenzo[d]thiazol-2-yl)urea, TFA] | 10.8 nM | 0.5 µM
20 | CC(C)(C)CN1CCC2(CC1)CN(c1ccccc1NC(=O)Nc1nc3ccc(OC(F)(F)F)cc3s1)c1c(O)ccc(Cl)c12 [Example 52, 1-(2-(4-Chloro-7-hydroxy-1′-neopentylspiro[indoline-3,4′-piperidine]-1-yl)phenyl)-3-(6-(trifluoromethoxy)benzo[d]thiazol-2-yl)urea, TFA] | 9.2 nM | 0.3 µM
21 | CC(C)CN1CCC2(CC1)CN(c1ccccc1NC(=O)Nc1nc3ccc(Cl)cc3s1)c1c(O)ccc(Cl)c12 [Example 65, 1-(2-(4-Chloro-7-hydroxy-1′-isobutylspiro[indoline-3,4′-piperidine]-1-yl)phenyl)-3-(6-chlorobenzo[d]thiazol-2-yl)urea] | 7.8 nM | 0.4 µM
22 | CC(C)(C)CN1CCC2(CC1)CN(c1ccc(C#N)cc1NC(=O)Nc1ccc(OC(F)(F)F)cc1)c1c(O)ccc(Cl)c12 [Example 69, 1-(2-(4-Chloro-7-hydroxy-1′-neopentylspiro[indoline-3,4′-piperidine]-1-yl)-5-cyanophenyl)-3-(4-(trifluoromethoxy)phenyl)urea] | 21.4 nM | 0.8 µM
23 | COC(=O)c1ccc(O)c2c1C1(CCN(CC(C)(C)C)CC1)CN2c1ccccc1NC(=O)Nc1ccc(F)cc1F [Example 78, Methyl 1-(2-(3-(2,4-difluorophenyl)ureido)phenyl)-7-hydroxy-1′-neopentylspiro[indoline-3,4′-piperidine]-4-carboxylate] | 7.9 nM | 0.7 µM
24 | CC(C)(C)CN1CCC2(CC1)CN(c1ccccc1NC(=O)Nc1nc3ccc(F)cc3s1)c1c(O)ccc(Cl)c12 [Example 39, 1-(2-(4-Chloro-7-hydroxy-1′-neopentylspiro[indoline-3,4′-piperidine]-1-yl)phenyl)-3-(6-fluorobenzo[d]thiazol-2-yl)urea] | 3.8 nM | 0.2 µM
25 | CC(C)(C)CN1CCC2(CC1)CN(c1cc(F)ccc1NC(=O)Nc1nc3ccc(F)cc3s1)c1c(O)ccc(Cl)c12 [Example 67, 1-(2-(4-Chloro-7-hydroxy-1′-neoopentylspiro[indoline-3,4′-piperidine]-1-yl)-4-fluorophenyl)-3-(6-fluorobenzo[d]thiazol-2-yl)urea] | 22.2 nM | 0.3 µM
